We go through six molecules from publication PMC5353780, “A novel benzo-heterocyclic amine derivative N30 inhibits influenza virus replication by depression of Inosine-5’-Monophospate Dehydrogenase activity” (Virology Journal, 2017).

Where a name gives a salt, the structure may show the parent alone. Read-outs that look alike come from different tables or passages of the source.

Broadly, the IC50 is the concentration at which inhibition is half-maximal. Low readings indicate greater potency, high ones weaker potency.

For one data set, the system named is BV/shenzhen/155/2005. The data set can be described thus: CPE assay in MDCK cells. The data set is classed as cell-based, influenza B virus. The following applies: for IC50: Influenza B virus, CPE, MDCK cells; for SI: TC50/IC50.
The test system of the next data set is A/wuhan/359/1995. The data set can be described thus: CPE assay in MDCK cells. The note with it: for IC50: Influenza A virus, CPE, MDCK cells; for SI: TC50/IC50. The data set is classed as cell-based, Influenza A virus (H3N2).
The subject of another data set is A/FortMonmouth/1/1947. The data set can be described thus: CPE assay in MDCK cells. The class given is cell-based, Influenza A virus (H1N1). The note with it: for IC50: Influenza A virus, CPE, MDCK cells; for SI: TC50/IC50.
The test system of another data set is BY/fujianxinluo/54/2006. The data set can be described thus: CPE assay in MDCK cells. The class given is cell-based, influenza B virus. The note with it: for IC50: Influenza B virus, CPE, MDCK cells; for SI: TC50/IC50.
The conditions of data set [1]: in vivo; cited from earlier work.
A further data set deals with CVB6 (strain Schmitt). As to the kind of experiment: CPE assay. The following applies: for IC50: CPE. The data set is classed as cell-based, Coxsackie virus B.
For the next data set, the system named is RSV. The data set is classed as cell-based, respiratory syncytial virus (long strain).
The next data set deals with CVB4 (strain J.V.B.). The data set can be described thus: CPE assay. The class given is cell-based, Coxsackie virus B. The following applies: for IC50: Enterovirus B, CVB4, CPE.
The subject of another data set is NA of IAV A/FM1/1947. The data set can be described thus: NA inhibition assay (MUNANA). The class given is biochemical, Influenza A virus. The following applies: Fig. 2a.
A further data set deals with CVB3 (strain Nancy). The data set can be described thus: CPE assay. The class given is cell-based, Coxsackie virus B. The note with it: for IC50: Enterovirus B, CVB3, CPE.
Data set [2] relates to IMPDH type II. The data set can be described thus: IMPDH type II expression by western blot in MDCK cells. The class given is cell-based, canine. The note with it: 24 h treatment, Fig. 3a. (A western blot detects proteins with antibodies after separation by electrophoresis.)
A further data set concerns viral hemagglutinin. Further details: species or system Influenza A virus. The note with it: maximum concentration 40 μM, 10-fold dilutions; Fig. 2b.
The subject of the next data set is MDCK cells. The following applies: dog, 48 h.
Data set [3] has as its target T1, IMPDH type II (Homo sapiens, UniProt P12268).
T1 construct: purchased Sigma-Aldrich
As to the kind of experiment: Enzymatic assay of IMPDH type II. The data set is classed as biochemical. The note with it: after N30 treatment; Fig. 3b. As for the experimental part:
The enzymatic assay was employed to evaluate the inhibitory effect of N30 on the activity of IMPDH type II by following the increase in formation of nicotinamide-adenine dinucleotide (NADH), which absorbance was read at 340 nm on Enspire at 30 °C. The 200 μL assay buffer contained 1 M Tris/HCl (pH 8.8), 1 M KCl, 30 mM EDTA, 10 μL IMPDH type II (Sigma-Aldrich), 1 mM DTT and NAD (Sigma-Aldrich). The reaction was started after addition of IMP, with final concentrations was 1 mM [19].

The test system of another data set is CVB5 (strain Faulkner). As to the kind of experiment: CPE assay. The note with it: for IC50: Enterovirus B, CVB5, CPE. The data set is classed as cell-based, Coxsackie virus B.
Data set [4] deals with IAV A/Fort Monmouth/1/1947 (H1N1). As to the kind of experiment: IAV M2 protein and RNA expression in MDCK cells (western blot, qRT-PCR). The following applies: 0.01 MOI, 24 h post-infection, Fig. 1c and d. The data set is classed as cell-based, Influenza A virus (H1N1). As for the experimental part: Fig. 1 Effects of N30 on IAV M2 protein and RNA expression in MDCK. a Chemical structure of N30. b The effect of N30 on viabilities of MRC-5, Vero, MDCK and Hep2 cells, which were measured by CCK. c The effect of N30 with different concentrations on IAV M2 protein and RNA expression. d The effect of N30 on IAV M2 protein and RNA expression compared with reference drugs. MDCK cells were infected with IAV A/Fort Monmouth/1/1947(H1N1) (0.01 multiplicity of infection [MOI, plaque-forming units (PFU)/cell]) for 2 hours, and treated with different concentrations of N30 or reference drugs for 24 h. Total mRNA and protein were extracted at 24 h post-infection, and analyzed by qRT-PCR and Western blotting respectively. […]
Cells were collected at 24 h post-infection and lysed in M-PER mammalian protein extraction reagent containing halt protease inhibitor cocktail (Thermo Fisher Scientific), sample proteins were subjected to SDS-PAGE and transferred to PVDF membrane (Millipore). After blocked with 5% milk, the membranes were incubated with antibodies against Influenza M2, β-actin (Santa Cruz), CVB3 VP1 (Millipore), IMPDH type II (Sigma-Aldrich), RSV M2 (Santa Cruz) and coronavirus (FIPV-70, Santa Cruz) respectively, then, the HRP-conjugated secondary antibodies were incubated and the signals were detected using an enhanced chemiluminescence (ECL) kit (GE Healthcare Life Sciences). […]

In the next data set the test system is CVB2 (strain Ohio-1). The data set can be described thus: CPE assay. The following applies: for IC50: Enterovirus B, CVB2, Ohio-1, CPE. The data set is classed as cell-based, Coxsackie virus B.
In a further data set the test system is CVB1 (strain Conn-5). The data set can be described thus: CPE assay. The data set is classed as cell-based, Coxsackie virus B. The note with it: for IC50: Enterovirus B, CVB1, CPE.
Data set [5] has as its system Vero cells. The note with it: African green monkey, 48 h.
For a further data set, the system named is IAV. The note with it: in vitro, at low micromolar concentrations; cited from earlier work.
The subject of a further data set is EV71(BrCr). As to the kind of experiment: CPE assay. The data set is classed as cell-based, Human enterovirus 71. The note with it: for IC50: Enterovirus A, EV71, CPE; for SI: TC50/IC50.
The nature of data set [6]: In vivo toxicity, body weight in mice. Further details: species or system female Kun Ming mice. The note with it: 100 mg/kg by oral administration in mice. As for the experimental part: To determine the in vivo toxicity of N30 preliminarily, female Kun Ming mice were gavaged 100 mg/kg and 50 mg/kg N30 twice a day. Six mice enrolled in each group were gavaged with N30 or vehicle for continuous administration for 14 days, then weighted at day 0, 5, 10 and 14 respectively, shown in Table 5.

Another data set concerns EV71(SZ98). The data set can be described thus: CPE assay. The data set is classed as cell-based, Human enterovirus 71. The note with it: for IC50: Enterovirus A, EV71, CPE; for SI: TC50/IC50.
Data set [7] deals with Vero cells. As to the kind of experiment: Cytotoxicity test (CCK). The note with it: 50% toxicity concentration.
For data set [8] the following is noted: human, in vivo, cited from earlier work.

Experimental for viral hemagglutinin: Briefly, the diluted IAV were mixed with diluted compounds in a U bottom 96-well plate. After incubation at 4 °C for 40 min, equal volume of 1.2% chicken erythrocyte suspension was added to each well. Then, the erythrocyte aggregation was evaluated by visual inspection after 40 min [17, 18].

In the case of `NC12CC3CC(CC(C3)C1)C2` [AH, amantadine hydrochloride], the IC50 was above 200 µM with BV/shenzhen/155/2005, 15.6 ± 0.31 µM with A/wuhan/359/1995, 0.65 ± 0.59 µM in the data set with A/FortMonmouth/1/1947 and above 200 µM in the data set on BY/fujianxinluo/54/2006.

In the case of `COc1c(C)c2c(c(O)c1C/C=C(\C)CCC(=O)OCCN1CCOCC1)C(=O)OC2` [MMF, mycophenolate mofetil], the side effects entry in [1] is “diarrhea, leucopenia, sepsis, and vomiting”.

On to `O=[N+]([O-])c1ccc(CNc2ccc3ncsc3c2)cc1` [N30, N-(4-nitrophenylmethyl) benzothiazole-6-amine], for which the SI is recorded as 13.15 in the data set on CVB6 (strain Schmitt); 8.64 in the data set with CVB4 (strain J.V.B.) (TC50/IC50); 57.47 in the data set with BV/shenzhen/155/2005; 49.21 in the data set with CVB3 (strain Nancy) (TC50/IC50); 50.89 in the data set with A/wuhan/359/1995; 35.26 in the data set on CVB5 (strain Faulkner) (TC50/IC50). Further, the SI in the data set on CVB2 (strain Ohio-1) (TC50/IC50) is 7.69; in the data set on CVB1 (strain Conn-5) (TC50/IC50) it was 14.26; with A/FortMonmouth/1/1947, 34.54; in the data set with EV71(BrCr) it was 11.14; with EV71(SZ98), 8.42; in the data set with BY/fujianxinluo/54/2006 it was 95.24. Besides, the IC50 in the data set with CVB6 (strain Schmitt) is 6.81 ± 1.89 µM; with CVB4 (strain J.V.B.) it was 10.4 ± 3.13 µM; in the data set with BV/shenzhen/155/2005 it was 1.16 ± 0.69 µM; in the data set on CVB3 (strain Nancy), 1.82 ± 2.76 µM; in the data set on A/wuhan/359/1995 it was 1.31 ± 0.87 µM; in the data set on CVB5 (strain Faulkner), 2.54 ± 1.43 µM. Further, the IC50 is 11.7 ± 2.94 µM in the data set with CVB2 (strain Ohio-1); 6.28 ± 1.61 µM with CVB1 (strain Conn-5); 1.93 ± 0.16 µM in the data set on A/FortMonmouth/1/1947; 8.04 ± 3.77 µM in the data set with EV71(BrCr); 10.6 ± 3.76 µM in the data set on EV71(SZ98); 0.7 ± 0.18 µM in the data set on BY/fujianxinluo/54/2006. Further, the “expression of the viral proteins” value in the data set with RSV (10 μM N30, RSV-infected Hep2 cells) is “almost completely inhibit”. Also, the “RSV M2 mRNA and protein expressions” value in the data set on RSV (RSV-infected Hep2 cells, 0.025 MOI, 24 h, Fig. 4b) is recorded as “markedly decreased”. Further, in the data set on NA of IAV A/FM1/1947, the “effect on NA activity” value is “little inhibitory effect”. Moreover, in the data set on IMPDH type II [2], the IMPDH expression entry is recorded as “have not been lessened”. Moreover, in the data set with viral hemagglutinin, the “hemagglutination inhibition (aggregation of chicken erythrocytes)” value (shortened to “hemagglutination inhibition”) was “could not inhibit the aggregation of chicken erythrocytes”. The TC50 with MDCK cells is 66.67 µM; in the data set on Vero cells [5], 89.56 ± 4.25 µM. Also, at IMPDH type II [3], the “reduction of the enzymatic reaction rate of IMPDH” value is reported as 38.18%. Also, the “amounts of IAV M2 protein and RNA” value in [4] is given as “dosage dependent relationship”. The “activity towards IAV” value with IAV is recorded as “potent activity”. Further, in data set [6], the acute toxicity entry is on record as “little acute toxicity”.

For `CCC(CC)O[C@@H]1C=C(C(=O)O)C[C@H](N)[C@H]1NC(C)=O` [OC, oseltamivir carboxylate], the IC50 in the data set on BV/shenzhen/155/2005 turned out to be 1.02 ± 0.08 µM; with A/wuhan/359/1995, 0.12 ± 0.01 µM; in the data set with A/FortMonmouth/1/1947, 0.25 ± 0.01 µM; with BY/fujianxinluo/54/2006, 0.56 ± 0.02 µM. The SI in the data set on BV/shenzhen/155/2005 is on record as above 49.02; in the data set on A/wuhan/359/1995, above 416.67; with A/FortMonmouth/1/1947 it was above 200; in the data set on BY/fujianxinluo/54/2006 it was above 89.28. The “effect on NA activity” value in the data set on NA of IAV A/FM1/1947 is recorded as “significantly reduce the activity of NA in a dose dependent manner”. Further, in the data set on viral hemagglutinin, the “hemagglutination inhibition” value was “did not show the inhibitory effect”. Further, the TC50 in the data set on MDCK cells is above 50 µM.

`CCOC(=O)c1ccc(OCCC2CCN(c3ccc(C)nn3)CC2)cc1` [Pirodavir]: in the data set with EV71(BrCr), the IC50 came to 0.16 µM and the SI is 203.56. Further, in the data set with EV71(SZ98), it took 0.27 ± 0.27 µM to reach half-maximal inhibition (IC50) and the SI came to 120.6. The same molecule displayed a TC50 in the data set on Vero cells [7] (Tables 3 and 4, CCK, 48 h) of 32.57 ± 0.55 µM.

As to `NC(=O)c1ncn([C@@H]2O[C@H](CO)[C@@H](O)[C@H]2O)n1` [RBV, Ribavirin], the IC50 is 4560 ± 2410 µM in the data set on CVB6 (strain Schmitt); 2470 ± 1600 µM with CVB4 (strain J.V.B.); 1.7 ± 0.57 µM in the data set on BV/shenzhen/155/2005; 3130 ± 1210 µM in the data set with CVB3 (strain Nancy); 8.23 ± 6.31 µM in the data set on A/wuhan/359/1995; 1200 ± 530 µM with CVB5 (strain Faulkner). The IC50 with CVB2 (strain Ohio-1) was determined as 2270 ± 180 µM; in the data set with CVB1 (strain Conn-5) it was 2370 ± 360 µM; with A/FortMonmouth/1/1947, 1.64 ± 0.72 µM; with BY/fujianxinluo/54/2006, 2.48 ± 0.53 µM. The bilirubin values result in data set [8] (po) is “elevated the bilirubin values”. Also, the anemia entry in [8] was “transient anemia”. Also, in the data set on IMPDH type II [2], the IMPDH expression entry is “no inhibition”. For the same molecule, the “hemagglutination inhibition” value in the data set on viral hemagglutinin is recorded as “did not show the inhibitory effect”. The molecule also came in with a TC50 in the data set on Vero cells [7] (Table 3) above 20000 µM.
